Patent publication US20230183224A1, “BEZOXAZINE DERIVATIVES USEFUL AS MONOACYLGLYCEROL LIPASE INHIBITORS” (Hoffmann-La Roche Inc., priority 2017, published 2023)

Biological target: T1, MAGL (recombinant wild-type) (Homo sapiens, UniProt Q99685)
T1 sequence (Q99685 1-303): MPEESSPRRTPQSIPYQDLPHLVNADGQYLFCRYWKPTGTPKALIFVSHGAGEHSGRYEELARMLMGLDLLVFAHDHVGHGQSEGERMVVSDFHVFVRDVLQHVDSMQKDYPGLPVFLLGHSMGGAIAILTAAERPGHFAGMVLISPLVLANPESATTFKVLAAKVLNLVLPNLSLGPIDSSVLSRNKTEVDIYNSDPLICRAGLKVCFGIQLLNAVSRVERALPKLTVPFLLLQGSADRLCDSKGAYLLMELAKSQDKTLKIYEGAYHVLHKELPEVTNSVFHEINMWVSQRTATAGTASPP
Experiment: MAGL inhibitory activity, hydrolysis of 4-nitrophenylacetate to 4-nitrophenol (absorbance at 405 nm)
Assay type: biochemical
Conditions: 1 nM MAGL, 300 μM 4-nitrophenylacetate, 15 min preincubation at RT, slope of absorbance at 405 nm between 5 and 80 min
Method: Compounds were profiled for MAGL inhibitory activity by measuring the enzymatic activity of MAGL by following the hydrolysis of 4-nitorphenylacetate resulting in 4-nitrophenol, which absorbs at 405-412 nm (G. G. Muccioli, G. Labar, D. M. Lambert, Chem. Bio. Chem. 2008, 9, 2704-2710).
The assay was carried out in 384 well assay plates (black with clear bottom, non-binding surface treated, Corning Ref. 3655) in a total volume of 40 μL. Compound dilutions were made in 100% DMSO (VWR Chemicals 23500.297) in a polypropylene plate in 3-fold dilution steps to give a final concentration range in the assay from 25 μM to 1.7 nM. 1 μL compound dilutions (100% DMSO) were added to 19 μL MAGL (recombinant wild-type) in assay buffer (50 mM TRIS (GIBCO, 15567-027), 1 mM EDTA (Fluka, 03690-100 ml)). The plate was shaked for 1 min at 2000 rpm (Variomag Teleshake) and then incubated for 15 min at RT. To start the reaction, 20 μL 4-Nitrophenlyacetate (Sigma N-8130) in assay buffer with 6% EtOH was added. The final concentrations in the assay were 1 nM MAGL and 300 μM 4-Nitrophenylacetate. After shaking (1 m, 2000 rpm) and 5 min incubation at RT, the absorbance at 405 nm was measured for a first time (Molecular Devices, SpectraMax Paradigm). A second measurement was then done after incubation for 80 min at RT. From the two measurements, the slope was calculated by subtracting the first from the second measurement.

Structure (SMILES): O=C1COc2ccc(C(=O)N3CCC(Cc4ccccc4)CC3)cc2N1 [Example 1, 6-(4-benzylpiperidine-1-carbonyl)-4H-1,4-benzoxazin-3-one]
- IC50: 101 nM

Structure (SMILES): O=C1COc2ccc(C(=O)N3CCN(Cc4ccccc4)CC3)cc2N1 [Example 2, 6-(4-benzylpiperazine-1-carbonyl)-4H-1,4-benzoxazin-3-one]
- IC50: 3720 nM

Structure (SMILES): O=C1COc2ccc(C(=O)N3CCC(Cc4ccc(F)cc4)CC3)cc2N1 [Example 3, 6-[4-[(4-fluorophenyl)methyl]piperidine-1-carbonyl]-4H-1,4-benzoxazin-3-one]
- IC50: 88 nM

Structure (SMILES): O=C1COc2ccc(C(=O)N3CCC(Cc4ccc(C(F)(F)F)cc4)CC3)cc2N1 [Example 4, 6-[4-[[4-(trifluoromethyl)phenyl]methyl]piperidine-1-carbonyl]-4H-1,4-benzoxazin-3-one]
- IC50: 34.7 nM

Structure (SMILES): COc1ccc(CC2CCN(C(=O)c3ccc4c(c3)NC(=O)CO4)CC2)cc1 [Example 5, 6-[4-[(4-methoxyphenyl)methyl]piperidine-1-carbonyl]-4H-1,4-benzoxazin-3-one]
- IC50: 170 nM

Structure (SMILES): COc1cccc(CC2CCN(C(=O)c3ccc4c(c3)NC(=O)CO4)CC2)c1 [Example 6, 6-[4-[(3-methoxyphenyl)methyl]piperidine-1-carbonyl]-4H-1,4-benzoxazin-3-one]
- IC50: 52 nM

Structure (SMILES): O=C1COc2ccc(C(=O)N3CCC(O)(Cc4ccccc4)CC3)cc2N1 [Example 7, 6-(4-benzyl-4-hydroxypiperidine-1-carbonyl)-4H-1,4-benzoxazin-3-one]
- IC50: 4350 nM

Structure (SMILES): O=C1COc2ccc(C(=O)N3CCC(Cc4cccc(F)c4)CC3)cc2N1 [Example 8, 6-[4-[(3-fluorophenyl)methyl]piperidine-1-carbonyl]-4H-1,4-benzoxazin-3-one]
- IC50: 47 nM

Structure (SMILES): O=C1COc2ccc(C(=O)N3CCC(Cc4cc(F)cc(F)c4)CC3)cc2N1 [Example 9, 6-[4-[(3,5-difluorophenyl)methyl]piperidine-1-carbonyl]-4H-1,4-benzoxazin-3-one]
- IC50: 58 nM

Structure (SMILES): O=C1COc2ccc(C(=O)N3CCC(S(=O)(=O)c4ccccc4)CC3)cc2N1 [Example 10, 6-[4-(benzenesulfonyl)piperidine-1-carbonyl]-4H-1,4-benzoxazin-3-one]
- IC50: 4220 nM

Structure (SMILES): O=C1COc2ccc(C(=O)N3CCC(N4C[C@H](c5ccccc5)OC4=O)CC3)cc2N1 [Example 11, 6-[4-[(5S)-2-oxo-5-phenyl-1,3-oxazolidin-3-yl]piperidine-1-carbonyl]-4H-1,4-benzoxazin-3-one]
- IC50: 1260 nM

Structure (SMILES): O=C1COc2ccc(C(=O)N3CCC(Cc4ccc(Cl)cc4)CC3)cc2N1 [Example 12, 6-[4-[(4-chlorophenyl)methyl]piperidine-1-carbonyl]-4H-1,4-benzoxazin-3-one]
- IC50: 48 nM

Structure (SMILES): O=C1COc2ccc(C(=O)N3CCC(C(=O)c4ccccc4)CC3)cc2N1 [Example 13, 6-(4-benzoylpiperidine-1-carbonyl)-4H-1,4-benzoxazin-3-one]
- IC50: 320 nM

Structure (SMILES): O=C1COc2ccc(C(=O)N3CCC(Oc4ccccc4)CC3)cc2N1 [Example 14, 6-(4-phenoxypiperidine-1-carbonyl)-4H-1,4-benzoxazin-3-one]
- IC50: 990 nM

Structure (SMILES): O=C1COc2ccc(C(=O)N3CCC(Oc4ccc(C(F)(F)F)cc4)CC3)cc2N1 [Example 15, 6-[4-[4-(trifluoromethyl)phenoxy]piperidine-1-carbonyl]-4H-1,4-benzoxazin-3-one]
- IC50: 76 nM

Structure (SMILES): O=C1COc2ccc(C(=O)N3CCC(Cc4cccc(F)c4F)CC3)cc2N1 [Example 16, 6-[4-[(2,3-difluorophenyl)methyl]piperidine-1-carbonyl]-4H-1,4-benzoxazin-3-one]
- IC50: 66 nM

Structure (SMILES): O=C1COc2ccc(C(=O)N3CCC(Cc4cccc(C(F)(F)F)c4)CC3)cc2N1 [Example 17, 6-[4-[[3-(trifluoromethyl)phenyl]methyl]piperidine-1-carbonyl]-4H-1,4-benzoxazin-3-one]
- IC50: 39.5 nM

Structure (SMILES): O=C1COc2ccc(C(=O)N3CCC(Oc4ccccc4)C3)cc2N1 (stereo not drawn) [Example 18, 6-(3-phenoxypyrrolidine-1-carbonyl)-4H-1,4-benzoxazin-3-one]
- IC50: 1040 nM

Structure (SMILES): O=C1COc2ccc(C(=O)N3CCC(N4C[C@@H](c5ccccc5)OC4=O)CC3)cc2N1 [Example 19, 6-[4-[(5R)-2-oxo-5-phenyl-1,3-oxazolidin-3-yl]piperidine-1-carbonyl]-4H-1,4-benzoxazin-3-one]
- IC50: 2490 nM

Structure (SMILES): N#Cc1ccc(CC2CCN(C(=O)c3ccc4c(c3)NC(=O)CO4)CC2)cc1 [Example 20, 4-[[1-(3-oxo-4H-1,4-benzoxazine-6-carbonyl)piperidin-4-yl]methyl]benzonitrile]
- IC50: 370 nM

Structure (SMILES): O=C1COc2ccc(C(=O)N3CCC(Cc4ccccc4-c4ccccc4)CC3)cc2N1 [Example 21, 6-[4-[(2-phenylphenyl)methyl]piperidine-1-carbonyl]-4H-1,4-benzoxazin-3-one]
- IC50: 130 nM

Structure (SMILES): O=C1COc2ccc(C(=O)N3CCC(Cc4ccccn4)CC3)cc2N1 [Example 22, 6-[4-(pyridin-2-ylmethyl)piperidine-1-carbonyl]-4H-1,4-benzoxazin-3-one]
- IC50: 1700 nM

Structure (SMILES): O=C1COc2ccc(C(=O)N3CCC(F)(Cc4ccc(Cl)cc4)CC3)cc2N1 [Example 23, 6-[4-[(4-chlorophenyl)methyl]-4-fluoropiperidine-1-carbonyl]-4H-1,4-benzoxazin-3-one]
- IC50: 300 nM

Structure (SMILES): O=C1COc2c(F)cc(C(=O)N3CCC(Cc4ccccc4)CC3)cc2N1 [Example 24, 6-(4-benzylpiperidine-1-carbonyl)-8-fluoro-4H-1,4-benzoxazin-3-one]
- IC50: 140 nM

Structure (SMILES): CN(C(=O)c1ccccc1)C1CCN(C(=O)c2ccc3c(c2)NC(=O)CO3)CC1 [Example 25, N-methyl-N-[1-(3-oxo-4H-1,4-benzoxazine-6-carbonyl)piperidin-4-yl]benzamide]
- IC50: 830 nM

Structure (SMILES): O=C1COc2ccc(C(=O)N3CCC(Cc4ccccc4)CC3)nc2N1 [Example 26, 6-(4-benzylpiperidine-1-carbonyl)-4H-pyrido[3,2-b][1,4]oxazin-3-one]
- IC50: 2060 nM

Structure (SMILES): O=C1COc2ccc(C(=O)N3CCC(C(=O)N4CCCCC4)CC3)cc2N1 [Example 27, 6-[4-(piperidine-1-carbonyl)piperidine-1-carbonyl]-4H-1,4-benzoxazin-3-one]
- IC50: 4240 nM

Structure (SMILES): O=C1COc2ccc(C(=O)N3CCC(Cc4ccccc4)C3)cc2N1 (stereo not drawn) [Example 28, 6-(3-benzylpyrrolidine-1-carbonyl)-4H-1,4-benzoxazin-3-one]
- IC50: 840 nM

Structure (SMILES): O=C1COc2ccc(C(=O)N3CC(Cc4ccc(C(F)(F)F)cc4)C3)cc2N1 [Example 29, 6-[3-[[4-(trifluoromethyl)phenyl]methyl]azetidine-1-carbonyl]-4H-1,4-benzoxazin-3-one]
- IC50: 150 nM

Structure (SMILES): O=C1COc2ccc(C(=O)N3CCC(Cc4cccc(C(F)(F)F)c4)C3)cc2N1 (stereo not drawn) [Example 30, 6-[3-[[3-(trifluoromethyl)phenyl]methyl]pyrrolidine-1-carbonyl]-4H-1,4-benzoxazin-3-one]
- IC50: 220 nM

Structure (SMILES): O=C1COc2ccc(C(=O)N3CCC(Cc4ccc(C(F)(F)F)cc4)C3)cc2N1 (stereo not drawn) [Example 31, 6-[3-[[4-(trifluoromethyl)phenyl]methyl]pyrrolidine-1-carbonyl]-4H-1,4-benzoxazin-3-one]
- IC50: 400 nM

Structure (SMILES): O=C1COc2ccc(C(=O)N3CCN(C(=O)c4ccc(C(F)(F)F)cc4)CC3)cc2N1 [Example 32, 6-[4-[4-(trifluoromethyl)benzoyl]piperazine-1-carbonyl]-4H-1,4-benzoxazin-3-one]
- IC50: 2180 nM

Structure (SMILES): O=C1COc2ccc(C(=O)N3CCC(N(C(=O)Cc4ccccc4)C4CC4)CC3)cc2N1 [Example 33, N-cyclopropyl-N-[1-(3-oxo-4H-1,4-benzoxazine-6-carbonyl)piperidin-4-yl]-2-phenylacetamide]
- IC50: 310 nM

Structure (SMILES): CC1CN(C(=O)c2ccc3c(c2)NC(=O)CO3)CCN1Cc1ccc(C(F)(F)F)cc1 (stereo not drawn) [Example 34, 6-[3-methyl-4-[[4-(trifluoromethyl)phenyl]methyl]piperazine-1-carbonyl]-4H-1,4-benzoxazin-3-one]
- IC50: 449 nM

Structure (SMILES): O=C1COc2ccc(C(=O)N3CCN(CCc4cccc(Cl)c4)C(c4cc[nH]n4)C3)cc2N1 (stereo not drawn) [Example 35, 6-[4-[2-(3-chlorophenyl)ethyl]-3-(1H-pyrazol-3-yl)piperazine-1-carbonyl]-4H-1,4-benzoxazin-3-one]
- IC50: 1830 nM

Structure (SMILES): O=C1COc2ccc(C(=O)N3CCN(Cc4ccc(C(F)(F)F)cc4)C(C(F)(F)F)C3)cc2N1 (stereo not drawn) [Example 36, 6-[3-(trifluoromethyl)-4-[[4-(trifluoromethyl)phenyl]methyl]piperazine-1-carbonyl]-4H-1,4-benzoxazin-3-one]
- IC50: 112 nM
